This test addresses T1, human PD-1 / PD-L1-Ig binding on Jurkat cell line over-expressing human PD-1 (Jurkat-PD-1) (Homo sapiens, UniProt Q15116).
T1 construct: expressed in transfected cells; host or cells: Jurkat
Nature of the test: Jurkat-PD-1 Cell Binding High-Content Screening Assay (CBA). It counts as cell-based. The note with it: Jurkat-PD-1 cells, PE-labeled PD-L1-Ig 20 nM final; read-out: Jurkat HPD1_PDL1 IC50. An outline of the steps: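 PE-PD-L1-Ig 20 nM final; cells in DMEM/10% FCS; cpd pre-incubation 2 h, 37° C; ligand 1 h; PFA fix + Hoechst 33342; high-content imaging read-out.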

Where a SMILES comes first, the peptide text is derived from it. Bridges are numbered along the chain shown (N, C = ends). [ ]: non-standard residue; d: D form. The star is where a group is joined. ξ: configuration not given here. Bip(3'-COOH) = N[C@@H](Cc1ccc(-c2cccc(C(=O)O)c2)cc1)C(=O)O; Phe(4-COOH) = N[C@@H](Cc1ccc(C(=O)O)cc1)C(=O)O; Bip = N[C@@H](Cc1ccc(-c2ccccc2)cc1)C(=O)O; Phe(3-OMe) = COc1cccc(C[C@H](N)C(=O)O)c1; Phe(3-Me) = Cc1cccc(C[C@H](N)C(=O)O)c1; Val(3-OH) = CC(C)(O)[C@H](N)C(=O)O; mTyr = N[C@@H](Cc1cccc(O)c1)C(=O)O; 4Pal = N[C@@H](Cc1ccncc1)C(=O)O; Cha = N[C@@H](CC1CCCCC1)C(=O)O; Cit = NC(=O)NCCC[C@H](N)C(=O)O; Ile(3ξ) = CCC(C)[C@H](N)C(=O)O; Carboxymethyl = O=C(O)C*; Nle = CCCC[C@H](N)C(=O)O; Orn = NCCC[C@H](N)C(=O)O; Pra = C#CC[C@H](N)C(=O)O; Dab = NCC[C@H](N)C(=O)O; Abu = CC[C@H](N)C(=O)O; Dap = NC[C@H](N)C(=O)O; Propargyl = C#CC*

T1 sequence (Q15116 25-288): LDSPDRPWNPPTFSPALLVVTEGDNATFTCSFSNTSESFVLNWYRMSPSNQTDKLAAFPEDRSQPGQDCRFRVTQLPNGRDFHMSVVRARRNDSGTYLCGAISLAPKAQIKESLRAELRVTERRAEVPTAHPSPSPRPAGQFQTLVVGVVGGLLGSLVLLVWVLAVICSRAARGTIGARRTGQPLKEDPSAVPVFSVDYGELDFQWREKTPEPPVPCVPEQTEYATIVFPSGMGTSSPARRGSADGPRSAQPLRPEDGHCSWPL

As a reminder, the IC50 is the concentration that gives 50% inhibition. `C#CCOc1ccc(C[C@@H]2NC(=O)[C@H](Cc3cccc(C)c3)NC(=O)[C@H](CC(=O)O)NC(=O)[C@H](Cc3ccc(OCC(=O)O)cc3)NC(=O)[C@H]([C@@H](C)O)NC(=O)CSC[C@@H](C(=O)N[C@@H](CCN)C(N)=O)NC(=O)[C@H](CCC(=O)O)NC(=O)[C@H](C(C)C)NC(=O)[C@H](CC3CCCCC3)NC(=O)[C@H](CCN)NC(=O)[C@@H](CC(C)C)NC(=O)[C@H](CCCN)NC(=O)[C@H](Cc3ccc(OCC(=O)O)cc3)NC(=O)[C@H](Cc3ccc(-c4ccccc4)cc3)NC2=O)cc1` [Compound 1829] ({CH2CO}-TY(Carboxymethyl)D[Phe(3-Me)]Y(Propargyl)[Bip]Y(Carboxymethyl)[Orn][dL][Dab][Cha]VEC[Dab]-NH2; thioether N-14): the IC50 turned out to be 2.4 nM. Under `CCCC[C@@H]1NC(=O)[C@H](CCN)NC(=O)[C@@H](CC(C)C)NC(=O)[C@H](CCCN)NC(=O)[C@H]([C@@H](C)CC)NC(=O)[C@H](Cc2ccc(-c3ccccc3)cc2)NC(=O)[C@H](C(C)C)NC(=O)[C@H](Cc2c[nH]c3ccccc23)NC(=O)[C@H](CC(=O)O)NC(=O)[C@H](Cc2ccc(O)cc2)NC(=O)[C@H](CN)NC(=O)CSC[C@@H](C(=O)N[C@@H](C)C(N)=O)NC(=O)[C@H]([C@@H](C)O)NC(=O)[C@H](C(C)C)NC1=O` [Compound 1160] ({CH2CO}-[Dap]YDWV[Bip]I[Orn][dL][Dab][Nle]VTCA-NH2; thioether N-14) stands 31.3 nM; under `CC(C)C[C@@H]1NC(=O)[C@H](Cc2c[nH]c3ccccc23)NC(=O)[C@H](CC(=O)O)NC(=O)[C@H](Cc2ccc(O)cc2)NC(=O)[C@H](Cc2ccccc2)NC(=O)CSC[C@@H](C(=O)N[C@@H](C)C(N)=O)NC(=O)[C@H]([C@@H](C)O)NC(=O)[C@H](C(C)C)NC(=O)[C@H](CC(C)C)NC(=O)[C@H](CCN)NC(=O)[C@@H](CC(C)C)NC(=O)[C@H](CCCN)NC(=O)[C@H](C(C)C)NC(=O)[C@H](Cc2ccc(-c3ccccc3)cc2)NC1=O` [Compound 1072] ({CH2CO}-FYDWL[Bip]V[Orn][dL][Dab]LVTCA-NH2; thioether N-14), 27.1 nM.

For `CCNC(=O)[C@H](CCN)NC(=O)[C@@H]1CSCC(=O)N[C@@H](CN)C(=O)N[C@@H](Cc2ccc(OCC(=O)O)cc2)C(=O)N[C@@H](CC(=O)O)C(=O)N[C@@H](Cc2cccc(O)c2)C(=O)N[C@@H](C(C)C)C(=O)N[C@@H](Cc2ccc(-c3ccccc3)cc2)C(=O)N[C@@H](Cc2ccc(O)cc2)C(=O)N[C@@H](CCCN)C(=O)N[C@H](CC(C)C)C(=O)N[C@@H](CCN)C(=O)N[C@@H](CC2CCCCC2)C(=O)N[C@@H](C(C)C)C(=O)N[C@@H](CCCN)C(=O)N1` [Compound 2046] ({CH2CO}-[Dap]Y(Carboxymethyl)D[mTyr]V[Bip]Y[Orn][dL][Dab][Cha]V[Orn]C[Dab]-NHEt; thioether N-14), the IC50 is 16.7 nM. Under `CCCC[C@@H]1NC(=O)[C@H](CCN)NC(=O)[C@@H](CC(C)C)NC(=O)[C@H](CCCN)NC(=O)[C@H]([C@@H](C)CC)NC(=O)[C@H](Cc2ccc(-c3ccccc3)cc2)NC(=O)[C@H](C(C)C)NC(=O)[C@H](Cc2cccc(C)c2)NC(=O)[C@H](CC(=O)O)NC(=O)[C@H](Cc2ccc(C(=O)O)cc2)NC(=O)[C@H](CN)NC(=O)CSC[C@@H](C(=O)N[C@@H](C)C(N)=O)NC(=O)[C@H]([C@@H](C)O)NC(=O)[C@H](C(C)C)NC1=O` [Compound 1203] stands 47.4 nM; under `CC(C)C[C@@H]1NC(=O)[C@H](Cc2c[nH]c3ccccc23)NC(=O)[C@H](CC(=O)O)NC(=O)[C@H](Cc2ccc(O)cc2)NC(=O)[C@H](Cc2ccccc2)NC(=O)CSC[C@@H](C(=O)NCC(N)=O)NC(=O)[C@H](CO)NC(=O)[C@H](C(C)C)NC(=O)[C@H](CC(C)C)NC(=O)[C@H](CC(N)=O)NC(=O)[C@@H](C)NC(=O)[C@H](CCN)NC(=O)[C@H](C(C)C)NC(=O)[C@H](Cc2ccc(-c3ccccc3)cc2)NC1=O` [Compound 1102] ({CH2CO}-FYDWL[Bip]V[Dab][dA]NLVSCG-NH2; thioether N-14), 71.1 nM. In the case of `Cc1cccc(C[C@@H]2NC(=O)[C@H](CC(=O)O)NC(=O)[C@H](Cc3ccc(C(=O)O)cc3)NC(=O)[C@H](Cc3ccncc3)NC(=O)CSC[C@@H](C(=O)N[C@H](CC(N)=O)C(N)=O)NC(=O)[C@H]([C@@H](C)O)NC(=O)[C@H](C(C)C)NC(=O)[C@H](CC3CCCCC3)NC(=O)[C@H](CCN)NC(=O)[C@@H](CC(C)C)NC(=O)[C@H](CCCN)NC(=O)[C@H](Cc3ccc(O)cc3)NC(=O)[C@H](Cc3ccc(-c4ccccc4)cc3)NC(=O)[C@H](C(C)C)NC2=O)c1` [Compound 2290] ({CH2CO}-[4Pal][Phe(4-COOH)]D[Phe(3-Me)]V[Bip]Y[Orn][dL][Dab][Cha]VTC[dN]-NH2; thioether N-14), the IC50 came to 13.5 nM.

For `C#CC[C@H](NC(=O)[C@H](CCN)NC(=O)[C@@H]1CSCC(=O)N[C@@H](CN)C(=O)N[C@@H](Cc2ccc(C(=O)O)cc2)C(=O)N[C@@H](CC(=O)O)C(=O)N[C@@H](Cc2cccc(C)c2)C(=O)N[C@@H](Cc2ccc(C(=O)O)cc2)C(=O)N[C@@H](Cc2ccc(-c3ccccc3)cc2)C(=O)N[C@@H](Cc2ccc(C(=O)O)cc2)C(=O)N[C@@H](CCCN)C(=O)N[C@H](CC(C)C)C(=O)N[C@@H](CCN)C(=O)N[C@@H](CC2CCCCC2)C(=O)N[C@@H](C(C)(C)O)C(=O)N[C@@H](CO)C(=O)N1)C(N)=O` [Compound 1845] ({CH2CO}-[Dap][Phe(4-COOH)]D[Phe(3-Me)][Phe(4-COOH)][Bip][Phe(4-COOH)][Orn][dL][Dab][Cha][Val(3-OH)]SC[Dab][Pra]-NH2; thioether N-14), the IC50 turned out to be 7.3 nM.

`Cc1cccc(C[C@@H]2NC(=O)[C@H](CC(=O)O)NC(=O)[C@H](Cc3ccc(O)cc3)NC(=O)[C@H](Cc3cnc[nH]3)NC(=O)CSC[C@@H](C(=O)N[C@H](C)C(N)=O)NC(=O)[C@H](CO)NC(=O)[C@H](C(C)(C)O)NC(=O)[C@H](CC3CCCCC3)NC(=O)[C@H](CCN)NC(=O)[C@@H](CC(C)C)NC(=O)[C@H](CCCN)NC(=O)[C@H](Cc3ccc(OCC(=O)O)cc3)NC(=O)[C@H](Cc3ccc(-c4ccccc4)cc3)NC(=O)[C@H](Cc3ccc(OCC(=O)O)cc3)NC2=O)c1` [Compound 2652] ({CH2CO}-HYD[Phe(3-Me)]Y(Carboxymethyl)[Bip]Y(Carboxymethyl)[Orn][dL][Dab][Cha][Val(3-OH)]SC[dA]-NH2; thioether N-14): the IC50 was determined as 29.6 nM. Under `COc1cccc(C[C@@H]2NC(=O)[C@H](CC(=O)O)NC(=O)[C@H](Cc3ccc(OCC(=O)O)cc3)NC(=O)[C@H](Cc3ccncc3)NC(=O)CSC[C@@H](C(=O)N[C@@H](C)C(N)=O)NC(=O)[C@H]([C@@H](C)O)NC(=O)[C@H](C(C)C)NC(=O)[C@H](CC(C)C)NC(=O)[C@H](CCN)NC(=O)[C@@H](CC(C)C)NC(=O)[C@H](CCCN)NC(=O)[C@H](CCCNC(N)=O)NC(=O)[C@H](Cc3ccc(-c4ccccc4)cc3)NC(=O)[C@H](C(C)C)NC2=O)c1` [Compound 1185] ({CH2CO}-[4Pal]Y(Carboxymethyl)D[Phe(3-OMe)]V[Bip][Cit][Orn][dL][Dab]LVTCA-NH2; thioether N-14) stands 7.4 nM; under `CC(C)C[C@H]1NC(=O)[C@H](CCCN)NC(=O)[C@H](CCCNC(N)=O)NC(=O)[C@H](Cc2ccc(-c3ccccc3)cc2)NC(=O)[C@H](C(C)C)NC(=O)[C@H](Cc2c[nH]c3ccccc23)NC(=O)[C@H](CC(=O)O)NC(=O)[C@H](Cc2ccc(OCC(=O)O)cc2)NC(=O)[C@H](CN)NC(=O)CSC[C@@H](C(=O)N[C@@H](C)C(N)=O)NC(=O)[C@H]([C@@H](C)O)NC(=O)[C@H](C(C)C)NC(=O)[C@H](Cc2ccccc2)NC(=O)[C@H](CCN)NC1=O` [Compound 1344] ({CH2CO}-[Dap]Y(Carboxymethyl)DWV[Bip][Cit][Orn][dL][Dab]FVTCA-NH2; thioether N-14), 31 nM.

For the compound `C#CCOc1ccc(C[C@@H]2NC(=O)[C@H](Cc3ccc(-c4ccccc4)cc3)NC(=O)[C@H](Cc3ccc(OCC(=O)O)cc3)NC(=O)[C@H](Cc3cccc(C)c3)NC(=O)[C@H](CC(=O)O)NC(=O)[C@H](Cc3ccc(OCC(=O)O)cc3)NC(=O)[C@H](CC)NC(=O)CSC[C@@H](C(=O)N[C@@H](CCN)C(N)=O)NC(=O)[C@H](CCC(=O)O)NC(=O)[C@H](C(C)C)NC(=O)[C@H](CC3CCCCC3)NC(=O)[C@H](CCN)NC(=O)[C@@H](CC(C)C)NC(=O)[C@H](CCCN)NC2=O)cc1` [Compound 1843] ({CH2CO}-[Abu]Y(Carboxymethyl)D[Phe(3-Me)]Y(Carboxymethyl)[Bip]Y(Propargyl)[Orn][dL][Dab][Cha]VEC[Dab]-NH2; thioether N-14), the IC50 came to 8.3 nM. Under `CC(C)C[C@@H]1NC(=O)[C@H](CCN)NC(=O)[C@@H](CC(C)C)NC(=O)[C@H](CCCN)NC(=O)[C@H](CCCNC(N)=O)NC(=O)[C@H](Cc2ccc(-c3ccccc3)cc2)NC(=O)[C@H](C(C)C)NC(=O)[C@H](Cc2c[nH]c3ccccc23)NC(=O)[C@H](CC(=O)O)NC(=O)[C@H](Cc2ccc(O)cc2)NC(=O)[C@H](Cc2ccncc2)NC(=O)CSC[C@@H](C(=O)N[C@@H](C)C(N)=O)NC(=O)[C@H]([C@@H](C)O)NC(=O)[C@H](C(C)C)NC1=O` [Compound 1044] ({CH2CO}-[4Pal]YDWV[Bip][Cit][Orn][dL][Dab]LVTCA-NH2; thioether N-14) stands 26.1 nM. Under `CCC(C)[C@@H]1NC(=O)[C@H](Cc2ccc(-c3ccccc3)cc2)NC(=O)[C@H](C(C)C)NC(=O)[C@H](Cc2c[nH]c3ccccc23)NC(=O)[C@H](CC(=O)O)NC(=O)[C@H](Cc2ccc(-c3cccc(C(=O)O)c3)cc2)NC(=O)[C@H](Cc2ccccc2)NC(=O)CSC[C@@H](C(=O)N[C@@H](C)C(N)=O)NC(=O)[C@H]([C@@H](C)O)NC(=O)[C@H](C(C)C)NC(=O)[C@H](CC2CCCCC2)NC(=O)[C@H](CCN)NC(=O)[C@@H](CC(C)C)NC(=O)[C@H](CCCN)NC1=O` (stereo partly drawn) [Compound 2218] ({CH2CO}-F[Bip(3'-COOH)]DWV[Bip][Ile(3ξ)][Orn][dL][Dab][Cha]VTCA-NH2; thioether N-14) stands 50.1 nM.

The values are drawn from patent US20250163104A1, “MACROCYCLIC IMMUNOMODULATORS” (priority 2021, published 2025).
